In patent US20240383882A1 (Ecstasy LLC, priority 2020, published 2024) one finds ED50 data, which are given here for 35 compounds.

SMILES strings stand for the structures. Counter-ions that a name gives are not always drawn.

The test system of one assay is male C57BL/6 mice. The assay can be described thus: 55° C. warm-water tail-flick test (antinociception). The settings on record: Mus musculus, sc, 0.5 h, compounds of Table I; s.c.; 30 min; 55° C. water; configuration tested as in Table II; read-out: ED50 (mg/kg) at 30 min on C57BL/6 mice in Warm-water Tail-flick Test. The class given is in vivo. The essentials:
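Mice with baseline tail-flick latency within 2 s at 55° C received compound s.c. and were retested at 30, 60, 90 and 120 min. % antinociception = 100×(test−control latency)/(20−control latency); ED50 in mg/kg.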
(Hot-plate and tail-flick tests time the reaction to a heat stimulus.)
`CCOC(c1ccccn1)C1(CCc2cccs2)CCN(C(C)(C)c2ccc(C)nc2)C1` (single isomer, unassigned) [Compound 86, 5-(2-((S or R)-3-((R& S)-ethoxy(pyridin-2-yl)methyl)-3-(2-(thiophen-2-yl)ethyl)pyrrolidin-1-yl)propan-2-yl)-2-methylpyridine citrate]: the ED50 was not above 30 mg/kg.
As for `Cc1ccc(C(C)(C)N2CCC(CCc3ccc(F)s3)(CNS(C)(=O)=O)C2)cn1` (single isomer, unassigned) [Compound 313], the ED50 is not above 30 mg/kg.
For `Cc1ccc(C(C)(C)N2CCC(CCc3ccc(F)s3)(CNS(=O)(=O)O)C2)cn1` (single isomer, unassigned) [Compound 322], the ED50 was not above 30 mg/kg.
In the case of `Cc1ccc(S(=O)(=O)NCC2(CCc3cc(C)c(C)s3)CCN(C(C)(C)c3ccc(C)nc3)C2)cc1` (single isomer, unassigned) [Compound 126], the ED50 is not above 30 mg/kg.

Still in this assay, the particulars now being: Mus musculus, sc, 0.5 h, compounds of Table III; s.c.; 30 min; 55° C. water; configuration tested as in Table IV; read-out: ED50 (mg/kg) at 30 min on C57BL/6 mice in Warm-water Tail-flick Test (same as Table II).
As to `CCOC[C@]1(CCc2ccccc2)CCN(C(C)(C)c2ccc(Br)cc2)C1` [Compound 5], the ED50 is not above 30 mg/kg.

The assay is the same for the next values; noted with them: Mus musculus; half maximal effective dose in mice; using one of: warm water tail-flick test, spared nerve injury, chronic constriction injury, or Complete Freund's adjuvant induced inflammatory pain (not stated which per compound); read-out: Biological Activity (ED50).
In the case of `CC(C)(c1ccccn1)N1CC[C@](CCc2ccc(C#N)cc2)(C(O)C(F)(F)F)C1` (single isomer, unassigned) [Compound 223], the ED50 is more than 50 mg/kg.
Regarding `Cc1ccnc(C)c1CN1CC[C@@](CCc2ccc(C#N)cc2)(C(O)C(F)(F)F)C1` (single isomer, unassigned) [Compound 227, 4-(2-((R)-1-((2,4-dimethylpyridin-3-yl)methyl)-3-((R or S)-2,2,2-trifluoro-1-hydroxyethyl)pyrrolidin-3-yl)ethyl) benzonitrile], the ED50 was more than 50 mg/kg.
Consider `CC(C)(c1ccccc1)N1CC[C@](CCc2ccc(S(C)(=O)=O)cc2)(C(O)C(F)(F)F)C1` (single isomer, unassigned) [Compound 213, (R or S)-2,2,2-trifluoro-1-((S)-3-(4-(methylsulfonyl)phenethyl)-1-(2-phenylpropan-2-yl)pyrrolidin-3-yl)ethan-1-ol], for which the ED50 is not above 30 mg/kg.
`N#Cc1ccc(CC[C@]2(COCc3ccccc3)CCN(C(c3cccnc3)c3cccnc3)C2)cc1` (single isomer, unassigned) [Compound 72]: the ED50 is more than 50 mg/kg.
Turning to `CC(C)(c1ccccn1)N1CC[C@](COCc2ccc(C#N)cc2)(C2CCCO2)C1` (single isomer, unassigned) [Compound 74], the ED50 is more than 50 mg/kg.
With `CCOC(c1ccccc1)[C@]1(CCc2ccc(C#N)cc2)CCN(C(C)(C)c2ccccc2)C1` (single isomer, unassigned) [Compound 31, 4-(2-((R)-3-((R or S)-ethoxy(phenyl)methyl)-1-(2-phenylpropan-2-yl)pyrrolidin-3-yl)ethyl)benzonitrile], the ED50 is more than 50 mg/kg.
On the same count and under the same terms, as for `COc1ccc(CN2CC[C@@](CCc3ccc(C#N)cc3)(C3OCC3(C)C)C2)cc1` (single isomer, unassigned) [Compound 205, 4-(2-((R)-3-((R or S)-3,3-dimethyloxetan-2-yl)-1-(4-methoxybenzyl)pyrrolidin-3-yl)ethyl) benzonitrile], the figure is not above 30 mg/kg; as for `CC(C)(c1ccccn1)N1CC[C@@](CCc2ccc(C#N)c(F)c2)(C(O)C(F)(F)F)C1` (single isomer, unassigned) [Compound 103, 2-fluoro-4-(2-((R)-1-(2-(pyridin-2-yl)propan-2-yl)-3-((R or S)-2,2,2-trifluoro-1-hydroxyethyl)pyrrolidin-3-yl)ethyl) benzonitrile], more than 50 mg/kg; as for `CC(C)(c1ccccn1)N1CC[C@@](CCc2cccc(C#N)c2)(C(O)C(F)(F)F)C1` (single isomer, unassigned) [Compound 134, 3-(2-((R)-1-(2-(pyridin-2-yl)propan-2-yl)-3-((R or S)-2,2,2-trifluoro-1-hydroxyethyl)pyrrolidin-3-yl)ethyl) benzonitrile], more than 50 mg/kg.
With `CC(C)(c1ccccn1)N1CC[C@](CO)(CCc2ccc(S(C)(=O)=O)cc2)C1` [Compound 53], the ED50 was more than 50 mg/kg.
Regarding `CC(C)(O)[C@@]1(CCc2ccc(C#N)cc2)CCN(C(c2ccc(F)cc2)c2cccnc2)C1` (single isomer, unassigned) [Compound 71], the ED50 is more than 50 mg/kg.
The same measure, in the same setting: to `CC(C)(c1ccccn1)N1CC[C@](COCc2ccccc2)(C2CCCO2)C1` (single isomer, unassigned) [Compound 42] belongs more than 50 mg/kg; to `CCOC[C@]1(CCc2ccc(F)cc2)CCN(Cc2ccc(OC)nc2)C1` [Compound 1, (R)-5-((3-(ethoxymethyl)-3-(4-fluorophenethyl)pyrrolidin-1-yl)methyl)-2-methoxypyridine], more than 50 mg/kg; to `CC(C)(c1ccccn1)N1CC[C@](CO)(CCc2ccccc2C#N)C1` [Compound 129, (R)-2-(2-(3-(hydroxymethyl)-1-(2-(pyridin-2-yl)propan-2-yl)pyrrolidin-3-yl)ethyl) benzonitrile], more than 50 mg/kg.
On to `CCOC[C@@]1(CCc2ccc(S(C)(=O)=O)cc2)CCN(C(C)(C)c2ccc(Cl)cc2)C1` [Compound 51], for which the ED50 was not above 30 mg/kg.
As for `CC(C)(c1ccccn1)N1CC[C@@](CCc2ccc(C#N)cc2)(CS(C)(=O)=O)C1` [Compound 162, (R)-4-(2-(3-((methylsulfonyl)methyl)-1-(2-(pyridin-2-yl)propan-2-yl)pyrrolidin-3-yl)ethyl) benzonitrile], the ED50 is more than 50 mg/kg.
`CCOC(C(F)(F)F)(C(F)(F)F)[C@]1(CCc2ccc(F)cc2)CCN(Cc2cccnc2)C1` [Compound 14, (R)-3-((3-(2-ethoxy-1,1,1,3,3,3-hexafluoropropan-2-yl)-3-(4-fluorophenethyl)pyrrolidin-1-yl)methyl)pyridine]: the ED50 was more than 50 mg/kg.
On the same count and under the same terms, to `CC(C)(c1ccccn1)N1CC[C@@](CCc2ccc(C#N)s2)(COCc2ccccc2)C1` [Compound 141, (R)-5-(2-(3-((benzyloxy)methyl)-1-(2-(pyridin-2-yl)propan-2-yl)pyrrolidin-3-yl)ethyl)thiophene-2-carbonitrile] belongs not above 30 mg/kg; to `CC1(C)COC1[C@]1(CCc2ccc(C#N)cc2)CCN(Cc2ncc(Cl)cn2)C1` (single isomer, unassigned) [Compound 210, 4-(2-((R)-1-((5-chloropyrimidin-2-yl)methyl)-3-((R or S)-3,3-dimethyloxetan-2-yl)pyrrolidin-3-yl)ethyl)benzonitrile], more than 50 mg/kg.
The same measure, in the same setting: as for `COC[C@]1(CCc2ccc(C#N)cc2)CCN(C(C)(C)c2ccccn2)C1` [Compound 59], the figure is more than 50 mg/kg; as for `CC(C)(c1ccccn1)N1CC[C@@](CCc2ccc(C#N)cc2)(CNC2(C(F)(F)F)CC2)C1` [Compound 203, (S)-4-(2-(1-(2-(pyridin-2-yl)propan-2-yl)-3-(((1-(trifluoromethyl)cyclopropyl)amino)methyl)pyrrolidin-3-yl)ethyl) benzonitrile], more than 50 mg/kg.
On to `CCOC(C(F)(F)F)(C(F)(F)F)[C@]1(CCc2ccc(C#N)cc2)CCN(C(C)(C)c2ccc(C)nc2)C1` [Compound 6, (R)-4-(2-(3-(2-ethoxy-1,1,1,3,3,3-hexafluoropropan-2-yl)-1-(2-(6-methylpyridin-3-yl)propan-2-yl)pyrrolidin-3-yl)ethyl) benzonitrile], for which the ED50 was not above 30 mg/kg.
On the same count and under the same terms, to `CC(C)(c1ccccn1)N1CC[C@@](CCc2ccc(C#N)cc2)(c2nnco2)C1` [Compound 124, (R)-4-(2-(3-(1,3,4-oxadiazol-2-yl)-1-(2-(pyridin-2-yl)propan-2-yl)pyrrolidin-3-yl)ethyl) benzonitrile] belongs more than 50 mg/kg.
Turning to `CC(C)(c1ccccn1)N1CC[C@@](/C=C/c2ccc(C#N)cc2)(c2nn[nH]n2)C1` [Compound 185, (S,E)-4-(2-(1-(2-(pyridin-2-yl)propan-2-yl)-3-(2H-tetrazol-5-yl)pyrrolidin-3-yl)vinyl) benzonitrile], the ED50 is more than 50 mg/kg.
In the case of `CC(C)(c1ccccn1)N1CC[C@](C#N)(CCc2ccc(F)c(F)c2)C1` [Compound 175, (R)-3-(3,4-difluorophenethyl)-1-(2-(pyridin-2-yl)propan-2-yl)pyrrolidine-3-carbonitrile], the ED50 was more than 50 mg/kg.
As for `CC1(C)COC1[C@]1(CCc2ccc(C#N)cc2)CCN(Cc2ccccn2)C1` (single isomer, unassigned) [Compound 192, 4-(2-((R)-3-((R or S)-3,3-dimethyloxetan-2-yl)-1-(pyridin-2-ylmethyl)pyrrolidin-3-yl)ethyl) benzonitrile], the ED50 is not above 30 mg/kg.
As for `CC(C)(c1ccccn1)N1CC[C@](CN)(CCc2ccc(C#N)cc2)C1` [Compound 115, (S)-4-(2-(3-(aminomethyl)-1-(2-(pyridin-2-yl)propan-2-yl)pyrrolidin-3-yl)ethyl) benzonitrile], the ED50 was more than 50 mg/kg.
Turning to `CC(C)(c1ccccn1)N1CC[C@@](CCc2ccc3ccoc3c2)(C(N)=O)C1` [Compound 174, (R)-3-(2-(benzofuran-6-yl)ethyl)-1-(2-(pyridin-2-yl)propan-2-yl)pyrrolidine-3-carboxamide], the ED50 was not above 30 mg/kg.
As for `CC(C)(c1ccc(F)cn1)N1CC[C@](CCc2ccc(C#N)cc2)(C(O)C(F)(F)F)C1` (single isomer, unassigned) [Compound 229, 4-(2-((S)-1-(2-(5-fluoropyridin-2-yl)propan-2-yl)-3-((R or S)-2,2,2-trifluoro-1-hydroxyethyl)pyrrolidin-3-yl)ethyl) benzonitrile], the ED50 was more than 50 mg/kg.
For `CC(C)(c1ccccn1)N1CC[C@@](CCc2ccccc2C#N)(C(O)C(F)(F)F)C1` (single isomer, unassigned) [Compound 135, 2-(2-((R)-1-(2-(pyridin-2-yl)propan-2-yl)-3-((R or S)-2,2,2-trifluoro-1-hydroxyethyl)pyrrolidin-3-yl)ethyl) benzonitrile], the ED50 is more than 50 mg/kg.
